Laboratory results taken from EP1401829B1, “NOVEL HETEROCYCLIC ANTIBACTERIAL COMPOUNDS” (Microbiotix, Inc., priority 2001, dated 2002).
Converted amounts (≈) assume the structure as drawn. Where two headings read alike, the source gives them in different places.

How the values were obtained:
[1] = test system: E. fecium; test: Minimal Inhibitory Concentration (MIC) determination, 96 well plates; assay type: cell-based, Enterococcus fecium; settings: for MIC: Enterococcus, read-out: MIC (µg/ml) E. fecium
Protocol: (§1) The following methods were used to characterize representative compounds. Minimal Inhibitory Concentration (MIC) determinations. MIC values were determined in 96 well plates, with bacterial growth monitored at OD 600 nm in 200µl following an initial bacterial seeding at approximately 1x10^5 colony forming units (CFU)/ml. Each drug is evaluated at five concentrations, with five data points at each dilution. MIC values (µg/ml) were determined against actively growing cultures in Heart-Brain Infusion (HBI) medium. Cell growth in cultures supplemented with a test compound was calculated as a percent of control at OD 600 nm after 16 to 18 hours at 37°C. […] Polymerase IIIC (Pol IIIC) assay. DNA polymerase activity (or inhibition thereof) was measured in a 96-well plate format. B. subtilis Pol IIIC was isolated as described by Hammond and Brown (Protein Expr. Purif., 3: 65-70 (1992)). Each 25 µl assay contained 30 mM Tris, pH 7.5, 10 mM magnesium acetate, 4 mM dithiothreitol, 20% glycerol, with 25 µM dATP, dCTP, dGTP and 10 µM dTTP (^3H-labelled at 1.44 Ci/mmole) and 0.4 mg/ml activated calf thymus DNA as substrates, as described previously (see Barnes et al, op. cit). Assays were initiated by the addition of 0.025 to 0.06 units of enzyme 1 unit is the amount required to incorporate 250 pmoles of [^3H] dTMP in a standard assay), incubated for 10 minutes at 30°C and terminated by the addition of 200 µl of cold 10% trichloroacetic acid (TCA),10 mM sodium pyrophosphate. Precipitated labeled DNA was collected on glass fiber filter plates, washed, dried, and counted in a liquid scintillation counter. Determination of Ki values. DNA polymerase activity was measured in a 96-well plate format in the absence of dGTP or dATP, depending on the structure of the test compound. Each 25 µl assay contained 30 mM Tris, pH 7.5, 10 mM magnesium acetate, 4 mM dithiothreitol, 20% glycerol, with 25 µM dATP, dCTP, and 10 µM dTTP (^3H-labelled at 1.44 Ci/mmole) and 0.4 mg/ml activated calf thymus DNA as substrates, as described previously. […] Assays were initiated by the addition of 0.025 to 0.06 units of enzyme (1 unit is the amount required to incorporate 250 pmoles of [^3H] dTMP in a standard assay), incubated for 10 minutes at 30 °C and terminated by the addition of 200 µl of cold 10% trichloroacetic acid, 10 mM sodium pyrophosphate. Precipitated labeled DNA was collected on glass fiber filter plates, washed, dried, and counted in a liquid scintillation counter. Ki is the concentration of test compound that reduces the control polymerase IIIC activity by 50 percent.
(§2) MIC values were determined for the Gram positive bacteria Bacillus subtilis, Staphylococcus aureus (two strains), Enterococcus fecalis, Enterococcus fecium, and for the Gram negative bacterium Escherichia coli.

[2] = target: T1, B. subtilis Pol IIIC (Bacillus subtilis, UniProt P13267); test: Polymerase IIIC (Pol IIIC) assay, determination of Ki values; assay type: biochemical; settings: assay in absence of dGTP or dATP, Ki is the concentration that reduces control polymerase IIIC activity by 50 percent
T1 construct: made in house
Protocol: as §1

[3] = test system: E. coli; test: Minimal Inhibitory Concentration (MIC) determination, 96 well plates; assay type: cell-based, Escherichia coli; settings: HBI medium, 16 to 18 hours at 37°C; for MIC: Escherichia coli, read-out: MIC (µg/ml) E. coli
Protocol: (§3) The following methods were used to characterize representative compounds. Minimal Inhibitory Concentration (MIC) determinations. MIC values were determined in 96 well plates, with bacterial growth monitored at OD 600 nm in 200µl following an initial bacterial seeding at approximately 1x10^5 colony forming units (CFU)/ml. Each drug is evaluated at five concentrations, with five data points at each dilution. MIC values (µg/ml) were determined against actively growing cultures in Heart-Brain Infusion (HBI) medium. Cell growth in cultures supplemented with a test compound was calculated as a percent of control at OD 600 nm after 16 to 18 hours at 37°C. This plate format conserves test compound and provides precise, quantitative data with low standard deviation determinations. Polymerase IIIC (Pol IIIC) assay. DNA polymerase activity (or inhibition thereof) was measured in a 96-well plate format. B. subtilis Pol IIIC was isolated as described by Hammond and Brown (Protein Expr. Purif., 3: 65-70 (1992)). Each 25 µl assay contained 30 mM Tris, pH 7.5, 10 mM magnesium acetate, 4 mM dithiothreitol, 20% glycerol, with 25 µM dATP, dCTP, dGTP and 10 µM dTTP (^3H-labelled at 1.44 Ci/mmole) and 0.4 mg/ml activated calf thymus DNA as substrates, as described previously (see Barnes et al, op. cit). Assays were initiated by the addition of 0.025 to 0.06 units of enzyme 1 unit is the amount required to incorporate 250 pmoles of [^3H] dTMP in a standard assay), incubated for 10 minutes at 30°C and terminated by the addition of 200 µl of cold 10% trichloroacetic acid (TCA),10 mM sodium pyrophosphate. Precipitated labeled DNA was collected on glass fiber filter plates, washed, dried, and counted in a liquid scintillation counter. Determination of Ki values. DNA polymerase activity was measured in a 96-well plate format in the absence of dGTP or dATP, depending on the structure of the test compound. Each 25 µl assay contained 30 mM Tris, pH 7.5, 10 mM magnesium acetate, 4 mM dithiothreitol, 20% glycerol, with 25 µM dATP, dCTP, and 10 µM dTTP (^3H-labelled at 1.44 Ci/mmole) and 0.4 mg/ml activated calf thymus DNA as substrates, as described previously. To each well were added 2 µl of compound solution to give final concentrations ranging from 20 - 0.027 µg/ml in the assay. Assays were initiated by the addition of 0.025 to 0.06 units of enzyme (1 unit is the amount required to incorporate 250 pmoles of [^3H] dTMP in a standard assay), incubated for 10 minutes at 30 °C and terminated by the addition of 200 µl of cold 10% trichloroacetic acid, 10 mM sodium pyrophosphate. Precipitated labeled DNA was collected on glass fiber filter plates, washed, dried, and counted in a liquid scintillation counter. Ki is the concentration of test compound that reduces the control polymerase IIIC activity by 50 percent.
as §2

[4] = test system: E. fecalis; test: as above; assay type: cell-based, Enterococcus fecalis; settings: for MIC: Enterococcus, read-out: MIC (µg/ml) E. fecalis
Protocol: as §1, §2

[5] = test system: S. aureus; test: as above; assay type: cell-based, Staphylococcus aureus; settings: for MIC: Staphylococcus aureus, read-out: MIC (µg/ml) S. aureus
Protocol: as §3, §2

[6] = test system: B. subtilis; test: as above; assay type: cell-based, Bacillus subtilis; settings: for MIC: Bacillus subtilis, read-out: MIC (µg/ml) B. subtilis
Protocol: as §1, §2

[7] = test system: S.aureus (Smith); test: as above; assay type: cell-based, Staphylococcus aureus; settings: for MIC: Staphylococcus aureus, read-out: MIC (µg/ml) S.aureus (Smith)
Protocol: as §1, §2

[8] = HBI medium, 16 to 18 hours at 37°C

T1 sequence (P13267 whole entry): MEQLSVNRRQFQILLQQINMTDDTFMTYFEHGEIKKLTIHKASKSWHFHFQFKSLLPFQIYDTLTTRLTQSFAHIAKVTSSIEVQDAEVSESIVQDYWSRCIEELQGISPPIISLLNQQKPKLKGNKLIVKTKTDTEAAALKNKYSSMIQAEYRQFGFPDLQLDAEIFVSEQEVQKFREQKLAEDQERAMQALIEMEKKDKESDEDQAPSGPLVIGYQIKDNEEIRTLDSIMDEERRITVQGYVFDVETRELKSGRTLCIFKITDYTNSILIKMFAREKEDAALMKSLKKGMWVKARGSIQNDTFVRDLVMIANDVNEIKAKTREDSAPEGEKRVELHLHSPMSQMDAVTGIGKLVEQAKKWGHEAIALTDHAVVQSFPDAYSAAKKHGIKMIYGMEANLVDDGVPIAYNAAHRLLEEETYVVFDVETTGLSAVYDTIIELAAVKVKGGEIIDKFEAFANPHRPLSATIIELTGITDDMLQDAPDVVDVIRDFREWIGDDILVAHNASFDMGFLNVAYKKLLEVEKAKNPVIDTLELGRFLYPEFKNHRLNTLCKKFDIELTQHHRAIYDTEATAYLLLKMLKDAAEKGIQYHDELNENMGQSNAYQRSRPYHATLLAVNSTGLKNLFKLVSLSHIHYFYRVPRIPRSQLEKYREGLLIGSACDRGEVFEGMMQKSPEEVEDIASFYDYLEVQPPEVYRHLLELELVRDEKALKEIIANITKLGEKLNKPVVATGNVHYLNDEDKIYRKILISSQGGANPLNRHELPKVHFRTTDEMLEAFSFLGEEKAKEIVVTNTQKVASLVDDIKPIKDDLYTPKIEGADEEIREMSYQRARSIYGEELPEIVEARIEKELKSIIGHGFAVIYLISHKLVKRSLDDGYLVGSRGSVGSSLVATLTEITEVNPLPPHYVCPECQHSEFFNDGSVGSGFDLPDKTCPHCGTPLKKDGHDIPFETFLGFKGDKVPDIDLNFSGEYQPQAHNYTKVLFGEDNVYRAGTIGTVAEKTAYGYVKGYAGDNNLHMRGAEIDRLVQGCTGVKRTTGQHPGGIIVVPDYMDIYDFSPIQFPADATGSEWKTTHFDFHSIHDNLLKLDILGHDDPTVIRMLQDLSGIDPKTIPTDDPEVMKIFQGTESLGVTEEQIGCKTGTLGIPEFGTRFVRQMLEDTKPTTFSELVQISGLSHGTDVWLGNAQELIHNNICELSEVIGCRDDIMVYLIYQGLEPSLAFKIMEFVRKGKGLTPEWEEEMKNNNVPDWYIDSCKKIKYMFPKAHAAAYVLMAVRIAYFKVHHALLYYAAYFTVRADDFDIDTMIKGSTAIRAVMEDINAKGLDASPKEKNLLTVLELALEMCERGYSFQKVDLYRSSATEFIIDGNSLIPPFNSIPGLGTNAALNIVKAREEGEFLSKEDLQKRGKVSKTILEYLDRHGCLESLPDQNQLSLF

Compound	MIC (µg/ml) E. fecium [1, 8] [µg/mL]	Ki ([2]; read-out: Ki (µM) Pol IIIC) [µM]	MIC (µg/ml) E. coli [3] [µg/mL]	MIC (µg/ml) E. fecalis [4, 8] [µg/mL]	MIC (µg/ml) S. aureus [5, 8] [µg/mL]	MIC (µg/ml) B. subtilis [6, 8] [µg/mL]	MIC (µg/ml) S.aureus (Smith) [7, 8] [µg/mL]	MIC [1, 8] [µg/mL]	Ki ([2]; Ki (µM) Pol IIIC) [µM]	MIC [3] [µg/mL]	MIC [4, 8] [µg/mL]	MIC [5, 8] [µg/mL]	MIC [6, 8] [µg/mL]	MIC [7, 8] [µg/mL]	MIC [1] [µg/mL]	MIC [4] [µg/mL]	MIC [5] [µg/mL]	MIC [6] [µg/mL]	MIC [7] [µg/mL]
3-{5-[1-(1-ethyl-3-carboxy-4-oxo-6,8-difluoro-7-quinolyl)-3-(1,3-diazabicyclononyl)]pentyl}-6-(3-ethyl-4-methylanilino)uracil [Compound 88]	5	0.024	>20	2.5	1.25	0.625	1.25												
CCc1cc(Nc2cc(=O)n(CCCCN3CCN(c4cc5c(cc4F)c(=O)c(C(=O)O)cn5CC)CC3)c(=O)[nH]2)ccc1C [Compound 1, 3-{4-[1-(1-ethyl-3-carboxy-4-oxo-6-fluoro-7-quinolyl)-4-piperazinyl]butyl}-6-(3-ethyl-4-methylanilino)uracil]								1.25 (≈ 2.02 µM)	0.024	> 20	1.25 (≈ 2.02 µM)	0.625 (≈ 1.01 µM)	0.156 (≈ 0.252 µM)	0.625 (≈ 1.01 µM)					
CCc1cc(Nc2cc(=O)n(CCCCCCCN3CCN(c4cc5c(cc4F)c(=O)c(C(=O)O)cn5C4CC4)CC3)c(=O)[nH]2)ccc1C [Compound 8, 3-{7-[1-(1-cyclopropyl-3-carboxy-4-oxo-6-fluoro-7-quinolyl)-4-piperazinyl]heptyl}-6-(3-ethyl-4-methylanilino)uracil]								> 80	0.013	40 (≈ 59.5 µM)	10 (≈ 14.9 µM)	1.25 (≈ 1.86 µM)	0.313 (≈ 0.465 µM)	0.625 (≈ 0.929 µM)					
CCc1cc(Nc2cc(=O)n(CCOCCN3CCN(c4cc5c(cc4F)c(=O)c(C(=O)O)cn5C4CC4)CC3)c(=O)[nH]2)ccc1C [Compound 11, 3-{2-[1-(1-cyclopropyl-3-carboxy-4-oxo-6-fluoro-7-quinolyl)-4-piperazinyl]ethoxyethyl}-6-(3-ethyl-4-methylanilino)uracil]								5 (≈ 7.73 µM)	0.03	> 80	10 (≈ 15.5 µM)	5 (≈ 7.73 µM)	1.25 (≈ 1.93 µM)	2.5 (≈ 3.87 µM)					
CCc1cc(Nc2cc(=O)n(CCCCCN3CCN(c4cc5c(cc4F)c(=O)c(C(=O)O)cn5C4CC4)CC3)c(=O)[nH]2)ccc1C [Compound 15, 3-{5-[1-(1-cyclopropyl-3-carboxy-4-oxo-6-fluoro-7-quinolyl)-4-piperazinyl]pentyl}-6-(3-ethyl-4-methylanilino)uracil]								1.25 (≈ 1.94 µM)	0.03	5 (≈ 7.75 µM)	0.625 (≈ 0.969 µM)	0.625 (≈ 0.969 µM)	0.156 (≈ 0.242 µM)	0.313 (≈ 0.485 µM)					
Cc1ccc(Nc2cc(=O)n(CCCCN3CCN(c4cc5c(cc4F)c(=O)c(C(=O)O)cn5C4CC4)CC3)c(=O)[nH]2)cc1Cl [Compound 64, 3-{4-[1-(1-cyclopropyl-3-carboxy-4-oxo-6-fluoro-7-quinolyl)-4-piperazinyl]butyl}-6-(3-chloro-4-methylanilino)uracil]								3.7 (≈ 5.81 µM)	0.055	7.5 (≈ 11.8 µM)	1.87 (≈ 2.94 µM)	1.25 (≈ 1.96 µM)	0.313 (≈ 0.491 µM)	0.625 (≈ 0.981 µM)					
Cc1ccc(Nc2cc(=O)n(CCCCN3CCN(c4cc5c(cc4F)c(=O)c(C(=O)O)cn5C4CC4)CC3)c(=O)[nH]2)cc1C [Compound 65, 3-{4-[1-(1-cyclopropyl-3-carboxy-4-oxo-6-fluoro-7-quinolyl)-4-piperazinyl]butyl}-6-(3,4-dimethylanilino)uracil]								1.87 (≈ 3.03 µM)	0.095	10 (≈ 16.2 µM)	1.87 (≈ 3.03 µM)	0.95 (≈ 1.54 µM)	0.23 (≈ 0.373 µM)	0.46 (≈ 0.746 µM)					
CCc1cccc(Nc2cc(=O)n(CCCCN3CCN(c4cc5c(cc4F)c(=O)c(C(=O)O)cn5C4CC4)CC3)c(=O)[nH]2)c1 [Compound 66, 3-{4-[1-(1-cyclopropyl-3-carboxy-4-oxo-6-fluoro-7-quinolyl)-4-piperazinyl]butyl}-6-(3-ethylanilino)uracil]								3.7 (≈ 6 µM)	0.26	6.1 (≈ 9.89 µM)	1.25 (≈ 2.03 µM)	0.95 (≈ 1.54 µM)	0.313 (≈ 0.508 µM)	0.625 (≈ 1.01 µM)					
O=C(O)c1cn(C2CC2)c2cc(N3CCN(CCCCn4c(=O)cc(Nc5ccc6c(c5)CCC6)[nH]c4=O)CC3)c(F)cc2c1=O [Compound 67, 3-{4-[1-(1-cyclopropyl-3-carboxy-4-oxo-6-fluoro-7-quinolyl)-4-piperazinyl]butyl}-6-(5-indanylamino)uracil]								2.5 (≈ 3.98 µM)	0.034	10 (≈ 15.9 µM)	1.25 (≈ 1.99 µM)	0.625 (≈ 0.994 µM)	0.23 (≈ 0.366 µM)	0.313 (≈ 0.498 µM)					
CCc1cc(Nc2ccc(NC(=O)N3CCN(c4cc5c(cc4F)c(=O)c(C(=O)O)cn5CC)CC3)c(=O)[nH]2)ccc1C [Compound 77, 3-{[1-(1-ethyl-3-carboxy-4-oxo-6-fluoro-7-quinolyl)-4-piperazinyl]carboxamido}-6-(3-ethyl-4-methylanilino)-2-pyridone]										> 80					> 80	> 80	2.5 (≈ 4.25 µM)	5 (≈ 8.49 µM)	2.5 (≈ 4.25 µM)
